Source: paper PMC3740188 (Protein & cell, 2013)

Key:
Assay type in all cases: binding
[1] = target: T1, AT cpn-β (thermosome cpn-β) (Acidianus tengchongensis, UniProt Q877H2); test: heating […] min then native PAGE of oligomer dissociation; conditions: ADP in place of ATP; pH 7.5, MgCl2
T1 sequence (Q877H2 1-553): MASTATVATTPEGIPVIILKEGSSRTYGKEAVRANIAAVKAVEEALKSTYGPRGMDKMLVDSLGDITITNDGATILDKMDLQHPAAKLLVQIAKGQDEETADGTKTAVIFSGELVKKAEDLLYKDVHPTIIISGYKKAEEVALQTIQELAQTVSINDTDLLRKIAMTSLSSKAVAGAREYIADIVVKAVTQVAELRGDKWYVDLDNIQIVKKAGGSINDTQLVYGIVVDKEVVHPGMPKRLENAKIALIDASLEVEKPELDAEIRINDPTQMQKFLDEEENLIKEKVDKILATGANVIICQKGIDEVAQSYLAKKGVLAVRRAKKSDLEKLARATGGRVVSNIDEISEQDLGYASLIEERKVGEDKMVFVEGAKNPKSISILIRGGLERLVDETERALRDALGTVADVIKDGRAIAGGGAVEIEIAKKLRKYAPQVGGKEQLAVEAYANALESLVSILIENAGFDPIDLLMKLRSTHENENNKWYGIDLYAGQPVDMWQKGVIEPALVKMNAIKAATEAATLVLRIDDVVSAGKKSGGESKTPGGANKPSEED

[2] = target: T2, AT cpn-α (thermosome cpn-α) (Acidianus tengchongensis, UniProt Q877H0); test: as above; conditions: ADP in place of ATP; pH 7.5, MgCl2
T2 sequence (Q877H0 1-563): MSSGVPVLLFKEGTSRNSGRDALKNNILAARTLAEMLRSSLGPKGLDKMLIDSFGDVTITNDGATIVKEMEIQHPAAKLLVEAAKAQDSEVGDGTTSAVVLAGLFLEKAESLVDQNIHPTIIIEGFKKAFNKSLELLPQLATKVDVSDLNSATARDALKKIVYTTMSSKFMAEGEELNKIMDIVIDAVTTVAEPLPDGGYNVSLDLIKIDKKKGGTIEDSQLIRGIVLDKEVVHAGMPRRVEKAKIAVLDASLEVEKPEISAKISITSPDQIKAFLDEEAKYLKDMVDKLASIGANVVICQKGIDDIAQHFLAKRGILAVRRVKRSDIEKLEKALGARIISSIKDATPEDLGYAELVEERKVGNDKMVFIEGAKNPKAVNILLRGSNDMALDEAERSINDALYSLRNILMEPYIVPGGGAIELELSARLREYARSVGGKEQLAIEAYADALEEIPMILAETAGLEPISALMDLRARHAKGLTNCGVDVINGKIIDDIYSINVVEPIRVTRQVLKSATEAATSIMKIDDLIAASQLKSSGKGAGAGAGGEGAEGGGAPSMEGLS

[3] = target: T2, AT cpn-α (thermosome cpn-α); test: nucleotide-induced oligomer assembly by native PAGE; conditions: 2 mM nucleotide, 20 mM MgCl2, pH 7.5, 37 °C, 8 h
[4] = target: T1, AT cpn-β (thermosome cpn-β); test: as above; conditions: 2 mM nucleotide, 20 mM MgCl2, pH 7.5, 37 °C, 8 h
[5] = target: T1, AT cpn-β (thermosome cpn-β); test: cryo-EM reconstruction with MDFF model; conditions: pH 7.5, 12 mM Mg, 50 mM KCl; 6.2/5.0 Å resolution

## Nc1ncnc2c1ncn2[C@@H]1O[C@H](COP(=O)(O)OP(=O)(O)O)[C@@H](O)[C@H]1O [ADP]
[1]
  Td: ADP binding also increased the thermal stability of cpn-α and cpn-β
[2]
  Td: ADP binding also increased the thermal stability of cpn-α and cpn-β

## Nc1ncnc2c1ncn2[C@@H]1O[C@H](COP(=O)(O)OP(=O)(O)NP(=O)(O)O)[C@@H](O)[C@H]1O [AMP-PNP]
[3]
  nucleotide-induced oligomer assembly by native PAGE: all nucleotides could efficiently induce the assembly of thermosomes for both cpn-α
[4]
  nucleotide-induced oligomer assembly by native PAGE: all nucleotides could efficiently induce the assembly of thermosomes for both cpn-α

## Nc1ncnc2c1ncn2[C@@H]1O[C@H](COP(=O)(O)OP(=O)(O)OP(=O)(O)O)[C@@H](O)[C@H]1O [ATP]
[5]
  cryo-EM reconstruction with MDFF model: cryoEM reconstructions of cpn-β in the apo or ATP-binding state

## Nc1nc2c(ncn2[C@@H]2O[C@H](COP(=O)(O)OP(=O)(O)OP(=O)(O)O)[C@@H](O)[C@H]2O)c(=O)[nH]1 [GTP]
[3]
  nucleotide-induced oligomer assembly by native PAGE: even GTP could induce the assembly of thermosomes
[4]
  nucleotide-induced oligomer assembly by native PAGE: even GTP could induce the assembly of thermosomes
